The test system of series [1] is E. coli C189 (clinical cystitis isolate). The series is described as follows: E. coli ascending pyelonephritis model, compound GM (Example 4). The class given is in vivo. The following applies: CD1 mice.
For the next series, the system named is P. aeruginosa PA103. The series is described as follows: Lethal P. aeruginosa pneumonia model in mice. The class given is in vivo. Conditions: IP 25 mg/kg, 10^6 organisms intranasally, FIG. 5 and 6.
The next series addresses LcrF (VirF) (Yersinia pestis, UniProt P28808). Nature of the series: biochemical. Conditions: EC50 for inhibition of LcrF(VirF)-DNA binding. Type of series: binding, Y. pseudotuberculosis.
In series [2] the target is T1, ExsA (Pseudomonas aeruginosa, UniProt P26993).
T1 construct: made in house
T1 sequence (P26993 1-278): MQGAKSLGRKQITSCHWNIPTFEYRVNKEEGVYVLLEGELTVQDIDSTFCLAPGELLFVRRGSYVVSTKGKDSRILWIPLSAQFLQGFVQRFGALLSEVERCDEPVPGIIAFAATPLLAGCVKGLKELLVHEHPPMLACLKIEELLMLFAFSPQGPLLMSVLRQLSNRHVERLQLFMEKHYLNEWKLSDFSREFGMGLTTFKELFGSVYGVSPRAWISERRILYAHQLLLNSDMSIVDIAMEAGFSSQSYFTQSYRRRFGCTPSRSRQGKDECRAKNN
The series is described as follows: Chemiluminescence-based ExsA-DNA binding assay. Conditions: read-out: ExsA EC50. Further details: species or system P. aeruginosa.

A further series has as its system E. coli UPEC strain C189. The series is described as follows: Ascending pyelonephritis model of infection (Example 3). The class given is in vivo. The following applies: female CD1 mice, oral dosing at infection and once a day for 4 days, 5-day infection.
The target in another series is T2, MarA (Escherichia coli, UniProt P0ACH5).
T2 sequence (P0ACH5 1-127): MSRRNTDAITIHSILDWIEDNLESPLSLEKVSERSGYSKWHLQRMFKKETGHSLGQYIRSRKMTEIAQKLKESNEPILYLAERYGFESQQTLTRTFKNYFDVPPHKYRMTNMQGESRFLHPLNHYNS
The series is described as follows: Chemiluminescence-based MarA-DNA binding assay. Further details: species or system E. coli. The following applies: Table 10.

The target of a further series is T3, SlyA (Escherichia coli, UniProt P0A8W2).
T3 sequence (P0A8W2 1-144): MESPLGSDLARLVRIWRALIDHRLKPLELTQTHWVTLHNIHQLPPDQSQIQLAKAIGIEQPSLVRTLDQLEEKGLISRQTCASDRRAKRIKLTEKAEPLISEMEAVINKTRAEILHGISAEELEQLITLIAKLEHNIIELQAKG
The series is described as follows: biochemical. Type of series: binding, E. coli.

A further series has as its target T4, SoxS (Escherichia coli, UniProt P0A9E2).
T4 sequence (P0A9E2 1-107): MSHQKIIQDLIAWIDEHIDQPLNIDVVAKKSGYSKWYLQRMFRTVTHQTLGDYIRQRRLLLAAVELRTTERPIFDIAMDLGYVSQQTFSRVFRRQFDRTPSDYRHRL
The series is described as follows: Chemiluminescence-based SoxS-DNA binding assay. Further details: made in house; species or system E. coli.

For another series, the target named is T5, Rob (Escherichia coli, UniProt P0ACI0).
T5 sequence (P0ACI0 1-289): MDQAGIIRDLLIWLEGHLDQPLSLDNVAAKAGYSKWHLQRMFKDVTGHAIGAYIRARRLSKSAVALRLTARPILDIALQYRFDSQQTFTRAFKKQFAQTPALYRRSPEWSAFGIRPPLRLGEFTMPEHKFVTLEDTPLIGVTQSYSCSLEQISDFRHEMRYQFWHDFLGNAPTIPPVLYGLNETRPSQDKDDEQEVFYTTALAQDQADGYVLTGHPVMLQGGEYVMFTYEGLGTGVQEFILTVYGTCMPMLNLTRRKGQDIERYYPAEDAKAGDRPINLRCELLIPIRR
Nature of the series: Chemiluminescence-based Rob-DNA binding assay. Further details: species or system E. coli. The following applies: Table 10.

In the next series the test system is uncut plasmid DNA. The series is described as follows: Qualitative agarose gel DNA intercalation assay. Type of series: binding. The following applies: 100 ng uncut plasmid DNA, compared with a known DNA intercalator.
Another series concerns the target T6, Rma (Salmonella typhimurium, UniProt H9L484).
T6 construct: fused on or other part: 6-histidine tag
T6 sequence (H9L484 1-113): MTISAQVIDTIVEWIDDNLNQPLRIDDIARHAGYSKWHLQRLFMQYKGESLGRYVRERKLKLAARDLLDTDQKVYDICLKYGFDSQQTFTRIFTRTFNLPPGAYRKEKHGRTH
The series is described as follows: Chemiluminescence-based Rma-DNA binding assay. Further details: species or system S. typhimurium. Conditions: Table 10.

For series [3], the target named is ExsA (Pseudomonas aeruginosa, UniProt P26993 P26993:1-278). Nature of the series: LANCE TR-FRET; same buffer; basis of inhibitor screen. The following applies: tags: 6xHis; label: N-term (5') biotin. (Time-resolved FRET reads energy transfer from a long-lived donor to a nearby acceptor.)
The mark [4] stands for this setting: dose response analysis (footnote c), read-out: in vitro SoxS activity: concentration necessary to inhibit DNA-protein binding by 50% (EC50).

Like-named read-outs stand apart in the source and are kept apart here.

LcrF (VirF), sequence (P28808 whole entry, looked up): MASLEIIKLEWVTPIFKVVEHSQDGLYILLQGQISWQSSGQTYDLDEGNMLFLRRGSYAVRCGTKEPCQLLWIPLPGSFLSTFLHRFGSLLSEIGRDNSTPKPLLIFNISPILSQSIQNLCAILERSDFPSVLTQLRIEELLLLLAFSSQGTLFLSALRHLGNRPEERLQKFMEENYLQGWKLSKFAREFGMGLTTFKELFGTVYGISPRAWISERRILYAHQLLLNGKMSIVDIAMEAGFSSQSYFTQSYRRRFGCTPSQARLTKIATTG

Consider `Cc1ccc(COn2c(-c3ccccc3)nc3ncccc32)cc1` [GM], for which the “Difference between vehicle treated and compound dose group (kidneys harvested 5 days post infection)” value in series [1] (single dose at the time of infection, 100 mg/kg, p<0.003) was “statistically significant difference”. In series [1] (subcutaneous at 0, 6, 24, 30, 48, 54, 72 and 96 hours post-infection, 1, 5 and 20 mg/kg, p<0.05), the “Difference between untreated (vehicle) and compound dose groups (kidneys harvested 5 days post infection)” value is given as “statistically significant difference”.
As for `O=C(Nc1ccc(-c2nc3ccc([N+](=O)[O-])cc3n2O)cc1)c1ccc(-n2ccnc2)cc1` [I], the “survival at 48 hours post infection” value in the series with P. aeruginosa PA103 stood at 50%. In addition, the EC50 at LcrF (VirF) is less than 10 µM; on ExsA [2] (Table 7, cell-free system), 10 to 25 µM.
Regarding `O=[N+]([O-])c1ccc2nc(-c3ccc(-c4ccccc4)o3)n(O)c2c1` [BQ], the “Efficacy (log10 decrease in the CFU/g kidney tissue)” value with E. coli UPEC strain C189 is reported as “** (exhibited a 1.1-2.0 log decrease in CFU/g)”. Moreover, the EC50 is greater than 5 µM on MarA; greater than 5 µM on SlyA; 1 to 4.9 µM on SoxS (Table 10, read-out: SoxS EC50); greater than 5 µM on SoxS (setting [4]); greater than 5 µM on Rob; greater than 5 µM on ExsA [2] (Table 10). The molecule also came in with an EC50 on Rma greater than 5 µM. In addition, the “ability to intercalate DNA” value with uncut plasmid DNA is “not found to intercalate DNA”.
With `CN(C)c1ccc(C(=O)Nc2ccc(-c3nc4ccc([N+](=O)[O-])cc4n3O)cc2)cc1` [AH], the EC50 at MarA is 1 to 4.9 µM; at SlyA it was greater than 5 µM; at SoxS (Table 10, read-out: SoxS EC50) it was less than 0.9 µM; on SoxS (setting [4]), less than 0.9 µM; on Rob, 1 to 4.9 µM; at ExsA [2] (Table 7, cell-free system), greater than 25 µM. Moreover, the EC50 at ExsA [2] (Table 10) and on Rma was 1 to 4.9 µM throughout.

B1: LANCE target DNA (SEQ ID NO. 1) (dsDNA)
DNA 1: CCGATTTAGCAAAACGTGGCATCGGTC
DNA 2: GACCGATGCCACGTTTTGCTAAATCGG
For B1, the binding result with ExsA [3] is listed as “binds”.
